From patent publication US20260240915A1, “USE OF EXTRACELLULAR VESICLES FOR THE TREATMENT OF CANCER” (HENRY FORD HEALTH SYSTEM, priority 2023, published 2026)
“Also recorded” adds a separate entry of the source.

Columns and labels:
[1] = tested on: HepG2 hepatocellular carcinoma cells; experiment: MTT cell viability assay, HepG2; assay type: cell-based; conditions: for effect of inhibitor alone on cancer viability: CPZ 2.5 to 10 μg/ml, nystatin 5 to 30 μM
Excerpt: (§1) Based on preliminary research, we hypothesized that under duress, cells and cell lines might generate exosomes that are deleterious specifically to malignant cells and tissue. We also speculated that exosomes could be loaded with specific microRNA (mi-RNA) that might further enhance anti-cancer activity and specificity. We initiated studies with human cerebral endothelial cells (HCEC) because […], endothelial cells would be able to release exosomes directly into the systemic circulation where they could travel to cancer sites. The initial mechanism of cellular stress we chose for the HCEC cells was oxygen-glucose deprivation (OGD). HCEC cells were exposed to OGD deprivation for a period of four hours and then exosomes were harvested and purified (See methods). HCEC cells exposed to OGD deprivation for longer than four hours started to lose viability. The “4 h-OGD-exosomes” were then tested for their effect on the viability of hepatocellular cancer cell lines, HepG2 and Hep3B, and on the benign liver cell line, THLE-2. To assay the cell viability of target cells, we used the MTT (3-(4,5-Dimethylthiazol-2-yl)-2,5-diphenyltetrazolium bromide) assay (See Methods). All cancer lines used in all of the studies are outlined in Table 1.
(§2) Cells were cultured in medium with indicated treatment.

[2] = tested on: Hep3B hepatocellular carcinoma cells; experiment: MTT cell viability assay, Hep3B; assay type: cell-based; conditions: for effect of inhibitor alone on cancer viability: CPZ 2.5 to 10 μg/ml, nystatin 5 to 30 μM; for effect of inhibitor pretreatment on the anti-cancer effect of Hypo-Exo: pretreatment with endocytosis inhibitor, then Hypo-Exo
Excerpt: as §1, §2

[3] = tested on: benign THLE-2 liver cell line; experiment: MTT cell viability assay, THLE-2; assay type: cell-based; conditions: benign liver cells
Excerpt: as §1, §2

HCC patients = conditions: study of 600 patients; cited from earlier work
[4] = tested on: hepatitis B-related HCC patients; conditions: treatment group, advanced stage patients; cited from earlier work
[5] = tested on: primary liver cancer cells taken from patients; experiment: Viability of primary liver cancer cells from HCC patients
Description: Exosomes were tested against primary liver cancer cells taken from the patient's tumor as well as non-malignant, normal liver cells taken from a distant site in the explant liver away from the tumor. OGD-Exo were tested along with HCEC-m214-Exo and also with the chemotherapeutic agents, oxaliplatin and Sorafenib. […] OGD-Exo were used at a dose of 10^8 p/ml to avoid excessive killing with OGD-Exo alone. Exosomes were tested against patient 11 (Pt.011) and patient 12 (Pt.012).
3-(4,5-dimethylthiazol-2-yl)-2,5 diplenyltetrazolium bromide (MTT) assay: To measure cell viability, cells were seeded in 96-well plates at a density of 800 cells per well. Cells were cultured in medium with indicated treatment. After 5 days of treatment, medium was removed and MTT was added to each well with an additional 4 hr incubation to allow mitochondrial dehydrogenase to convert MTT into insoluble formazan crystals. The absorption of solubilized formazan was measured at a wavelength of 490 nm by an ELISA plate reader (EL340 microplate reader; Bio-Tek Instruments, Winooske, VT).

Structure (SMILES): CN(C)CCCN1c2ccccc2Sc2ccc(Cl)cc21 [CPZ, chlorpromazine]
- effect of inhibitor alone on cancer viability [1]: did not affect cancer viability
- effect of inhibitor pretreatment on the anti-cancer effect of Hypo-Exo ([1]; pretreatment with endocytosis inhibitor, then Hypo-Exo): significantly attenuated the anti-cancer effect of Hypo-Exo; also recorded: blunt the anti-tumor effect of Hypo-Exo
- effect of inhibitor alone on cancer viability [2]: did not affect cancer viability
- effect of inhibitor pretreatment on the anti-cancer effect of Hypo-Exo [2]: significantly attenuated the anti-cancer effect of Hypo-Exo

Structure (SMILES): CNC(=O)c1cc(Oc2ccc(NC(=O)Nc3ccc(Cl)c(C(F)(F)F)c3)cc2)ccn1 [Sorafenib]
- viability at 1.2 µM ([1]; Homo sapiens, HepG2, Hypo-Exo 10^8 p/ml, Sorafenib 1.2 μM): 67.4%
- effect on cell viability [3]: negligible impact
- increase in survival (HCC patients): three
- viability at 0.8 µM ([2]; Homo sapiens, Hep3B, Hypo-Exo 10^8 p/ml, Sorafenib 0.8 µM): 80.5%
- median overall survival [4]: 6.5 months
- cytotoxicity at 1.2 µM ([5]; Homo sapiens, read-out: decrease in viability of primary liver cancer cells): 42 to 44%

Structure (SMILES): C[C@@H]1[C@H](O)[C@@H](C)/C=C/C=C/CC/C=C/C=C/C=C/C=C/C(O[C@H]2O[C@H](C)[C@@H](O)[C@H](N)[C@@H]2O)CC2O[C@](O)(CC(O)C(O)CCC(O)CC(O)CC(O)CC(=O)O[C@H]1C)CC(O)C2C(=O)O (some centres unmarked) [nystatin]
- effect of inhibitor alone on cancer viability [1]: did not affect cancer viability
- effect of inhibitor alone on cancer viability [2]: did not affect cancer viability
- effect of inhibitor pretreatment on the anti-cancer effect of Hypo-Exo [2]: significantly diminished the anti-cancer effect of Hypo-Exo; also recorded: blunts the effect of Hypo-Exo

Structure (SMILES): O=C1[O][Pt]2([NH][C@@H]3CCCC[C@H]3[NH]2)[O]C1=O [oxaliplatin]
- decrease in viability of primary liver cancer cells ([5]; OGD-Exo 10^8 p/ml, oxaliplatin 0.06125 µM, Sorafenib 1.20 μM, Pt.011 and Pt.012): approximately 20%
